Test results from US9175045B2, “Peptidomimetic macrocycles” (Aileron Therapeutics, Inc., priority 2008, dated 2015).
pEC50, pKd: −log10 of the molar value. Numbered stars: 1 amine (or outer) side, 2 acyl side, 3 side chain; on linkers, the order of the positions; unused ones are H or OH. Bridge positions count the residues as written; N and C are the ends. Square brackets hold non-standard residues; d marks the D form. Peptide text beside a SMILES is read from it. ξ: configuration not given here. ξαMeNle(6-ylidene) = CC(CCCC=[*:3])(N[*:1])C(=O)[*:2]

Assays:
[1] = Estimated free fraction in blood, calculated from Kd* with [HSA]total 700 μM; format: in vitro ADME; conditions: human; [HSA]total set at 700 μM; read-out: Free Fraction est. in blood
Method: The free fraction in blood is estimated per the following equation, as derived by Trainor, Expert Opin. Drug Disc., 2007, 2(1):51-64, where [HSA]total is set at 700 μM. [formula]

[2] = test system: Jurkat cell line; format: cell-based; conditions: 24 h
Method in brief: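 Jurkat E6-1 cells in Opti-MEM, serum-free or with 2% or 10% human serum, were treated 24 h at 37° C. with crosslinked polypeptides: final 0.6-20 μM serum-free, 3.125-100 μM with serum. Viability measured by CellTiter-Glo luminescence; Triton X-100 and DMSO-only wells served as controls.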

[3] = target: human serum proteins; assay: Apparent affinity to human serum proteins (Kd*) by EC50 shift analysis; format: in vitro ADME; conditions: nonlinear regression of EC50 shift with serum, n = 1, P = 700 μM for 100% serum
Method in brief: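 Kd* fitted by nonlinear regression of EC50 shifts across increasing serum concentrations. Shift attributed entirely to HSA (P = 700 µM at 100% serum, 70 µM at 10%), with 1:1 binding stoichiometry fixed. Whole-blood EC′50 estimated with P = 700 µM.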

CC[C@H](C)[C@H](NC(=O)[C@H](CCCNC(=N)N)NC(=O)[C@H](CCCNC(=N)N)NC(=O)[C@H](CCCNC(=N)N)NC(=O)[C@H](CC(C)C)NC(=O)[C@H](C)NC(C)=O)C(=O)NC1(C)CCCC=CCCCC(C)(C(=O)N[C@@H](Cc2c[nH]cn2)C(=O)N[C@@H](Cc2c[nH]cn2)C(=O)N[C@@H](CO)C(=O)N[C@H](C(N)=O)[C@@H](C)O)NC(=O)[C@H](C)NC(=O)[C@H](CS)NC(=O)[C@H](CC(C)C)NC1=O (stereo partly drawn) [Compound 19, Ac- ALRRRI$LCA$HHST-NH2] (Ac-ALRRRI[ξαMeNle(6-ylidene)]LCA[ξαMeNle(6-ylidene)]HHST-NH2; staple 7-11)
fraction unbound [1]: 0.001
pEC50 [2]: 5.62
pKd [3]: 6.22
